Our source for the IC50 values is PubChem BioAssay AID2305 (GlaxoSmithKline (GSK), 2010).

SMILES strings stand for the structures.

The subject of the experiment is P. falciparum 3D7 growth, pLDH absorbance. Nature of the experiment: P. falciparum 3D7 growth inhibition, dose response, strain 3D7 (AID 2305).

As for `Cc1cccc(C(=O)Nc2ccnc(N(C)CCCN(C)Cc3cccc(O)c3)c2)c1`, the IC50 – broadly, the concentration at which inhibition is half-maximal – is 970 nM.

The compound `O=C(C1CC1)N1c2ccccc2CCc2ccccc21` yielded an IC50 of 830 nM.

Compound `CCCCCCCCn1c2c(c(=N)c3c1CCC3)CCC2` showed an IC50 of 220 nM. The same measure for `Cc1ccc(-c2cnc(N)c3cc(-c4ccnc(N)n4)ccc23)cc1`: 810 nM; for `O=C(c1ccc([N+](=O)[O-])o1)N1CCC(Cc2ccc(C(F)(F)F)cc2)CC1`: 170 nM. The same measure for `C=CC[C@@H](C(=O)OCC)[C@@H]1[C@@H](N(CC=C)C(=O)OC(C)(C)C)CCN1C(=O)OCc1ccccc1`: 960 nM; for `COc1cc(F)c2ncc(Cl)c(CCN3CCC(NCc4ccc5c(n4)NC(=O)CO5)CC3)c2c1`: 500 nM; for `O=C1C2=C(Nc3ccccc3SC2c2cccs2)c2ccccc21` (centres undefined): 230 nM.

For `COc1ccc(NC(=O)[C@H](Cc2ccccc2)Nc2cc(C)nc(NCCN3CCCC3)n2)cc1`, the IC50 turned out to be 1390 nM.

The compound `COCCC[C@H]1C(=O)O[C@H]2CCC[C@@H]21` showed an IC50 of 700 nM. The same measure for `COc1cc(NC(=O)Nc2ccc(Br)cc2C(=O)Nc2ccc(Br)cc2)cc(OC)c1OC`: 760 nM; for `COc1ccc(NC(=O)NC2CCN(c3ccnc4ccccc34)C2)cc1` (centres undefined): 870 nM. The same measure for `CCCNCc1ccc(-c2ccc(CN(Cc3ccc4c(c3)OCO4)C(=O)Cc3cccnc3)cc2)nc1`: 860 nM; for `Cc1cc(Nc2cccc(C#N)c2)nc(Nc2ccccc2C)n1`: 860 nM. The same measure for `O=C(NC1CCN(Cc2cccc(C(F)(F)F)c2)CC1)c1ccc(-c2cccc(C(F)(F)F)c2)s1`: 1010 nM.

Compound `CC(C)c1ccc(CN2CCCCC(NC(=O)c3cc(-c4ccccc4Cl)cs3)C2)cc1` (centres undefined) gave an IC50 of 1120 nM.

On to `Cc1[nH]c2ccccc2c1C1=CCN(CCCCC23CCCc4cccc(c42)NC3=O)CC1` (centres undefined), for which the IC50 was determined as 230 nM. As to `CCOc1cc(C(=O)NCc2cccc(C(F)(F)F)c2)ccc1-c1nc2ccc(Cl)cc2[nH]1`, the IC50 was found to be 980 nM. The same measure for `CNC(=O)C1Cc2c([nH]c3cc(Br)ccc23)C2(CCN(CCc3ccccc3)CC2)N1` (centres undefined): 720 nM. The same measure for `COc1ccc(-c2nc(-c3ccc([N+](=O)[O-])cc3)no2)cc1OC`: 410 nM; for `Cc1ccc2c(Cc3cnc(N)nc3N)cc(C)c(N)c2n1`: 1420 nM; for `COCCNCC(O)Cn1c2ccc(Cl)cc2c2cc(Cl)ccc21` (centres undefined): 50 nM. The same measure for `COc1c(C2CCN(CCCCNC(=O)c3oc(-c4ccc(Cl)cc4)cc3CO)CC2)ccc2c1CCCC2`: 370 nM; for `CN1CCN(Cc2cccc(-c3ccc4c(Nc5cc(O)c(Cl)cc5F)ccnc4c3)c2)CC1`: 770 nM; for `CC[C@H]1CN2CC[C@@H]1C[C@H]2[C@H](O)c1ccnc2ccc(Cl)cc12`: 120 nM. The compound `NC(N)=Nc1nc(-c2cccc(NC(=O)CCCCCCCON3C(N)=NC(N)=NC34CCCCC4)c2)cs1` displayed an IC50 of 40 nM. The same measure for `Cc1cc(NC(=O)NCCN2CCC(NS(=O)(=O)c3ccc(Br)cc3)C2)c2ccccc2n1` (centres undefined): 600 nM; for `CC(=O)Nc1ccc(C(=O)Nc2ccc(-c3cccc(-c4nc5ccc(F)cc5[nH]4)c3)cc2)cn1`: 230 nM.

With `CC(C)c1ccc(C(NC(=O)C2CCCCC2)c2ccc3cccnc3c2O)cc1` (centres undefined), the IC50 came to 600 nM. The same measure for `c1ccc2c(NCCCCCCNc3c4ccccc4nc4ccccc34)c3ccccc3nc2c1`: 750 nM; for `C=CCOC(=O)N1CCC(CNCc2ccc(-c3cccc(-c4nc5ccccc5[nH]4)c3)cc2)C1` (centres undefined): 250 nM. As for `COc1cc(Cc2cnc(N)nc2N)cc(CC(C)O)c1O` (centres undefined), the IC50 amounted to 840 nM. The same measure for `O=C(/C=C/c1ccc(Cl)c(Cl)c1)N1CCC(CCN2CCc3[nH]c4ccccc4c3C2)CC1`: 890 nM. The compound `COc1ccc2nccc([C@@H](O)CN3CCC(NC(=O)c4cc5ccccc5[nH]4)CC3)c2c1` had an IC50 of 970 nM. In the case of `CCn1c(-c2nonc2N)nc2c(-c3cccc(NC(=O)Nc4cccc(Cl)c4)c3)ncc(OCCCN)c21`, the IC50 is 940 nM.

Regarding `CCc1cn2c3c(cc(C(=O)N[C@@H](Cc4ccccc4)[C@H](O)CNC(C)C)cc13)N(C)S(=O)(=O)C2`, the IC50 was 320 nM.

Regarding `O=C(/C=C/c1cccc(Br)c1)NCCCCCN1CCC(c2c[nH]c3ccccc23)CC1`, the IC50 came to 630 nM.

For `O=C(Nc1ccc(Cl)cc1)N(CC1C[C@H]2CC[C@@H](C1)N2Cc1ccc(C(F)(F)F)cc1)c1ccc(N2CCOCC2)c(F)c1` (some centres undefined), the IC50 stood at 1070 nM. The same measure for `CCNc1cc(C)nc(Nc2ccc(NC(=O)c3ccccc3)cc2)n1`: 1020 nM; for `FC(F)(F)c1ccc2nc(-c3ccc(-c4cccc(CNCc5ccccc5)c4)cc3)[nH]c2c1`: 220 nM. `O=C(NC1CCC(N2CCCC(OCc3ccccc3)C2)CC1)c1cc2ccccc2[nH]1` (centres undefined) had an IC50 of 1210 nM. The same measure for `CC1(C)N=C(N)N=C(N)N1c1cc(Cl)c(Cl)cc1Cl`: 180 nM. The same measure for `COc1cccc(OC2CCN(C(=O)c3ccc(-c4ccc(N5CCCC5=O)cc4C)cc3)CC2)c1`: 1010 nM; for `c1ccc(-c2ccc(-c3csc(Nc4ccncc4)n3)cc2)cc1`: 1010 nM; for `CCNc1c2ccc(Cl)cc2nc2ccc(OC)cc12`: 840 nM.

The compound `COc1ccc(Nc2nccc(NCC(O)c3ccc(C(F)(F)F)cc3)n2)cc1` (centres undefined) displayed an IC50 of 550 nM. The same measure for `Cc1ccc(C2=NNC3(S2)C(=O)Nc2ccc(C)cc23)cc1` (centres undefined): 1020 nM; for `CCCCN1CCN(CCCCNc2c3ccccc3nc3ccccc23)CC1`: 170 nM. The same measure for `Cn1nc(C(F)(F)F)cc1-c1ccc(C(=O)NC2CCC(CN3CCC(c4c[nH]c5ccccc45)CC3)CC2)s1` (centres undefined): 560 nM.

In turn, `Cc1cc(NCCCN2CCCC2=O)n2c(nc3ccccc32)c1C#N` came in with an IC50 of 860 nM. The same measure for `COc1ccc(C(=O)CCc2ccc(O)cc2)cc1`: 480 nM; for `Cn1cccc1C(=O)C(=O)Nc1cccc(-c2ccc(-c3nc4ccc(C(F)(F)F)cc4[nH]3)cc2)c1`: 790 nM. The same measure for `O=C(Nc1ccc(Cn2ncc(N3CCNCC3)c(Cl)c2=O)cc1)Nc1ccc(-c2ccccc2)cc1`: 590 nM; for `Cc1c(C(=O)NCc2ccncc2)sc2nc(-c3cccc([N+](=O)[O-])c3)cn12`: 910 nM. The compound `OC(c1cc(C(F)(F)F)nc2c(F)cccc12)C1CCCCN1` (centres undefined) yielded an IC50 of 780 nM.

The compound `Nc1c2ccccc2nc2cc(Cl)ccc12` returned an IC50 of 710 nM. The same measure for `CCCCCCNC(=O)C1Cc2c([nH]c3ccc(F)cc23)C2(CCN(Cc3ccccc3)CC2)N1` (centres undefined): 870 nM. The same measure for `Cc1nc(-c2ccc(-c3ccc(C(=O)Nc4ccc(-n5ccnc5)c(N5CCN(C)CC5)c4)cc3)c(C)c2)no1`: 830 nM; for `c1ccc(Oc2ccc(Nc3nc(NCCc4cnc[nH]4)nc(NC4CCCC4)n3)cc2)cc1`: 1030 nM; for `Cc1cc(F)ccc1N(c1nc(-c2cc(Cl)ccc2Cl)cs1)C1CCNC1` (centres undefined): 1010 nM.

Regarding `O=C(N[C@@H]1C[C@H]1c1ccccc1)N(CCCn1ccnc1)Cc1csc(-c2ccc(CNCc3ccccc3)cc2)n1`, the IC50 amounted to 850 nM. The same measure for `C(=NNc1ccnc2ccccc12)c1ccncc1`: 740 nM; for `C=Cc1ccc(-c2c(C)[nH]c(C)c(Br)c2=O)cc1`: 560 nM. The same measure for `Cn1ccc(-c2cccc(Nc3ccnc4cc(-c5nccs5)ccc34)c2)n1`: 410 nM; for `O=C(Nc1cccc(CN2CCCN(Cc3ccc(O)cc3)CC2)c1)c1cc2ccccc2s1`: 360 nM; for `CCCCCCN1CCCN(Cc2ccc(C(=O)Nc3ccc(CC)cc3)cc2)CC1`: 760 nM.

`COc1cc(C(=O)Nc2cccc(-c3cn4cccc(C)c4n3)c2)cc(OC)c1OC`: the half-maximal inhibitory concentration (IC50) was 700 nM. The same measure for `CCCN(CCC)CCCNc1ccc(C(=O)Nc2ccc(C)c(F)c2)cc1[N+](=O)[O-]`: 540 nM.

In turn, `Cc1ccc2nc(C)n(C3CCN(C(=O)Cc4ccc(F)c(F)c4)CC3)c2c1` came in with an IC50 of 470 nM. The same measure for `Cc1cnc2ccc(NS(=O)(=O)c3sc4ccc(Cl)cc4c3C)cc2c1N1CCNCC1`: 810 nM; for `CCC(C)CN1CCN(c2cc(NC(=O)c3cccs3)ccn2)C(C)C1` (centres undefined): 1000 nM. The same measure for `O=C(Nc1ccc([N+](=O)[O-])cc1)c1nn(-c2ccccc2)cc1N=Cc1cccc(O)c1`: 890 nM.

Compound `COc1cc2c(C3CCN(CC4CCC(NC(=O)/C=C/c5ccc(Cl)c(Cl)c5)CC4)CC3)c[nH]c2cn1` (centres undefined) returned an IC50 of 420 nM.

On to `CCC[C@@H]([C@@H](CC(C)C)C(=O)N[C@@H](CCCCNC(=O)c1ccccn1)C(=O)Nc1nccs1)N(O)C=O`, for which the IC50 is 50 nM. The same measure for `O=C(Nc1cccc(C(F)(F)F)c1)c1cccc(S(=O)(=O)NCC2CCCN2CC2CCCCC2)c1` (centres undefined): 1110 nM; for `COc1ccc(O)c(CN2CCN(c3cc(C)ccc3C)CC2)c1`: 1010 nM; for `CCOc1ccc2c(NN=Cc3cc(OC)c(OC)c(OC)c3)cc(C)nc2c1`: 610 nM. In turn, `Cc1nn(-c2cccc(Cl)c2)c2c1C(C(=O)c1ccc3c(c1)OCO3)CC(=O)N2` (centres undefined) returned an IC50 of 370 nM. The same measure for `CCC(C)NCc1c(O)ccc2c(CNC(C)CC)c(O)ccc12` (centres undefined): 590 nM; for `CN(c1ccc(NC(=O)Nc2cc(C(C)(C)C)on2)cc1)c1ccnc(NCCOC(=O)Nc2cc(C(C)(C)C)on2)n1`: 750 nM. The compound `CCN(CC)CC(O)CNc1c2ccc([N+](=O)[O-])cc2nc2cc(OC)c(OC)cc12` (centres undefined) showed an IC50 of 270 nM. For the compound `Cc1ccc2nc(N(CCCn3ccnc3)C(=O)C=Cc3cccs3)sc2c1`, the IC50 was determined as 1390 nM. The same measure for `O=C(C=Cc1ccc(Cl)c(Cl)c1)NCCCCCN1CCCC(CCCNC(=O)/C=C/c2ccccc2)C1` (centres undefined): 590 nM.

`Clc1ccc(-c2ncc(-c3ccncc3)[nH]2)cc1Cl`: the IC50 was 1060 nM. The same measure for `CCN(CC)CCCN1CCN(C(=O)c2cccc(-c3noc(C(F)(F)F)n3)c2)CC1`: 150 nM; for `CC(=O)Nc1ccc(C(=O)Nc2cccc(-c3ccc(-c4nc5c(C)cccc5[nH]4)cc3)c2)cn1`: 190 nM; for `COc1ccc(CNC2CCN(c3ccc(NC(=O)c4cccc(Cl)c4)cc3)CC2)cc1OC`: 1020 nM. The same measure for `COc1c(C2CCN(CCCCNC(=O)c3ccc(-c4ccc(Cl)cc4)cn3)CC2)ccc2c1CCCC2`: 910 nM. The same measure for `CC(=O)N1N=C(c2ccccc2)Sc2c1nc(-c1ccc(Cl)cc1)n2C(C)=O`: 990 nM.
